Assay results from publication PMC10439952, “JT002, a small molecule inhibitor of the NLRP3 inflammasome for the treatment of autoinflammatory disorders” (Scientific Reports, 2023).

Experiments:
[1] = Pharmacokinetics in male Sprague–Dawley rats after i.v. and p.o. administration; type: in vivo
Protocol: (§1) The pharmacokinetics (PK) of JT002 were assessed in male Sprague–Dawley rats and male Beagle dogs after intravenous (i.v.) and oral (p.o.) administration (Table 2). […] In dogs, a maximum drug plasma concentration (Cmax) of 4.0 µg/mL (9 µM) was reached 1 h after a single 1 mg oral dose. Dose-adjusted exposures (dose-adjusted AUC) from oral administration were close to identical between rat and dog (11.8 versus 11.6) (Table 2).

[2] = Pharmacokinetics in male Beagle dogs after i.v. and p.o. administration; type: in vivo; settings: plasma, Dog
Protocol: as §1

NLRP3 inflammasome = NLRP3 inflammasome (Mus musculus, UniProt Q8R4B8); test: Inhibition of IL-1β production in mouse BMDMs stimulated by LPS + monosodium urate crystals; type: cell-based; parameters: host or cells: mouse PBMCs; mouse bone-marrow derived macrophages; mouse whole blood (C57BL/6 in the ex vivo study); settings: Mouse BMDM, read-out: Geo Av IC50, IL-1β
Protocol: Inflammasome activation and whole blood assays were essentially carried out as described earlier. Details can be found in the supplementary information section accompanying this publication. A protocol for blood draws from healthy volunteers and use of the blood in preclinical assays was approved by Western Institutional Review Board, Inc (Puyallup, WA, USA). Informed consent was obtained from each donor prior to the first blood draw.
Cell viability was determined by addition of an equal volume of CellTiter-Glo® 2.0 reagent (Promega) to the remaining cells/supernatant in each well. Intracellular Caspase-1 activity was measured using the Caspase-Glo® assay (Promega) according to the manufacturer’s instructions. The biochemical capsase-1 assay was conducted at Reaction Biology Corporation (Malvern, USA). Human IL-1β, IL-1α, and TNFα and mouse IL-1β were measured in cell culture supernatants using homogeneous time resolved fluorescence assay kits (HTRF, Cisbio, Codolet, France). Human IL-18 was measured in cell culture supernatants using an ELISA kit (R&D Systems, Minneapolis, MN, USA). Plasma IL-1β concentrations were determined by Quantikine® ELISA (R&D Systems, Minneapolis, MN).
4H). MS: m/z 433.1 (M+H+). […]

[3] = Rat, single 5 mg oral dose, sodium salt form
[4] = male, Sprague-Dawley, plasma, iv, Rat, 1 mg/kg
[5] = male, Sprague-Dawley, plasma, po, Rat, 5 mg/kg

NLRP3 inflammasome, sequence (Q8R4B8 whole entry): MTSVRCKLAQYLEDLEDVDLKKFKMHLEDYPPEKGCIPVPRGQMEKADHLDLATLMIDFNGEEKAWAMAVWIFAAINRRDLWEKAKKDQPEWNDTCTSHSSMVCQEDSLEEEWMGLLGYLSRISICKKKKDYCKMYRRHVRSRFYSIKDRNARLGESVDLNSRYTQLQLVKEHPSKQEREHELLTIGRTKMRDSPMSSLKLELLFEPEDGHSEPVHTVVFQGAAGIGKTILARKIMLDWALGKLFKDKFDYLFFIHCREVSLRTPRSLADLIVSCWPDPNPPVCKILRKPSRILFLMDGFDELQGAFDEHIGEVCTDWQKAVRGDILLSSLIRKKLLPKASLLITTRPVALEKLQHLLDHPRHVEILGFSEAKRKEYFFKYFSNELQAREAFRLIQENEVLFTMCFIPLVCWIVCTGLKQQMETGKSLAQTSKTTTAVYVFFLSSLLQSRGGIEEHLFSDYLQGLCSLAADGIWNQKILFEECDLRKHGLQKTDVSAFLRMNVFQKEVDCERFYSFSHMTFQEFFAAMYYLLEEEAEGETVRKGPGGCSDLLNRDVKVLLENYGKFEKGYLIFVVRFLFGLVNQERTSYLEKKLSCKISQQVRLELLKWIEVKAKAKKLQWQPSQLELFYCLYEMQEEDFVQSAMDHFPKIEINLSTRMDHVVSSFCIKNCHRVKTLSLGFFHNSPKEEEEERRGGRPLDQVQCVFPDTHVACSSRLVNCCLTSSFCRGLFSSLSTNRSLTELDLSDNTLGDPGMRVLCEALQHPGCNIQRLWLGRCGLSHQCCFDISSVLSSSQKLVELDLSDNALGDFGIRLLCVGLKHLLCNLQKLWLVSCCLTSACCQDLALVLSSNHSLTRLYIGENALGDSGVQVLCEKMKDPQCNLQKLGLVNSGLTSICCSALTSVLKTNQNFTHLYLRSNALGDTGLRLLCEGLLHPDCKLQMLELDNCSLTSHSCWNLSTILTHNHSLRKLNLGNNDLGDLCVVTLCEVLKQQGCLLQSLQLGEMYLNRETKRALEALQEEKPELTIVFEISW

SMILES: CO[C@@H]1COc2c(S(=O)(=O)NC(=O)Nc3c4c(cc5c3CCC5)CCC4)cnn2C1 [JT002]
- %F (oral bioavailability) ([1]; Rat, p.o., 5 mg/kg, sodium salt form): 73.2%
- maximum plasma concentration [1, 3]: 36 µM
- time of maximum plasma concentration [1, 3]: thirty
- AUC [1, 4]: 16.2 µg·h/mL
- Cmax [1, 4]: 10.6 µg/mL
- half-life [1, 4]: 2.8 h
- clearance ([1]; male, Sprague-Dawley, plasma, iv, Rat, i.v., 1 mg/kg, read-out: Clpl (plasma clearance)): 0.06 L/h/kg
- Vd ([1]; male, Sprague-Dawley, plasma, iv, Rat, i.v., 1 mg/kg, read-out: Vss): 0.2 L/kg
- AUC [1, 5]: 59.2 µg·h/mL
- Cmax [1, 5]: 15.6 µg/mL
- half-life [1, 5]: 3.4 h
- Tmax ([1]; male, Sprague-Dawley, plasma, po, Rat, 5 mg/kg, median): 0.5 h
- bioavailability ([1]; male, Sprague-Dawley, rat, plasma, po, 5 mg/kg, p.o., 5 mg/kg, sodium salt form, read-out: %F (oral bioavailability)): 73%
- Cmax ([2]; single 1 mg oral dose, read-out: maximum drug plasma concentration (Cmax)): 9 µM
- AUC ([2]; iv, 1 mg/kg): 10.6 µg·h/mL
- half-life ([2]; iv, 1 mg/kg): 1.1 h
- clearance ([2]; iv, i.v., 1 mg/kg, read-out: Clpl (plasma clearance)): 0.108 L/h/kg
- Cmax ([2]; iv, i.v., 1 mg/kg, read-out: Cmax): 7 µg/mL
- Vd ([2]; iv, i.v., 1 mg/kg, read-out: Vss): 0.2 L/kg
- AUC ([2]; po, 1 mg/kg): 11.6 µg·h/mL
- half-life ([2]; po, 1 mg/kg): 1.4 h
- Tmax ([2]; po, 1 mg/kg, median): 1 h
- Cmax ([2]; po, p.o., 1 mg/kg, read-out: Cmax): 4 µg/mL
- bioavailability ([2]; po, p.o., 1 mg/kg, sodium salt form, read-out: %F (oral bioavailability)): 100%
- IC50 (NLRP3 inflammasome): 3 nM
